Measured values: US6168776A (priority 1997, dated 2001)
Entries after “also recorded” stand apart in the source; their conditions may differ.

Key:
[1] = Staining of AD brain sections (fluorescence microscopy); set-up: species or system human; details: in words
Description: 26: 241-242 (1973) with 1 mM 1,4-bis(3-carboxy-4-hydroxyphenylethenyl)-benzene substituted for Congo red, but the procedure was otherwise identical. Stained slides were examined using fluorescence microscopy.
(§1) The staining method was that of Stokes and Trickey, J. Clin. Pathol. 26: 241-242 (1973) with 1,4-bis(3-carboxy-4-hydroxyphenylethenyl)-benzene substituted for Congo red.

[2] = Staining of transgenic mouse brain section; details: in words
Source text: FIG. 11. […] 26: 241-242 (1973). […] The photomicrograph was obtained using fluorescence microscopy.
as §1

Aβ(10-43) [3] = target: T1, Aβ(10-43) (Homo sapiens, UniProt P05067); assay: Inhibition of [14C] Chrysamine G binding to Aβ(10-43); details: for binding activity to Aβ / Ki relative to Chrysamine G / potency/affinity relative to reference compound: in words; for potency/affinity relative to reference compound: vs Chrysamine G or, for Chrysamine G, vs Congo red; for energy of binding: ΔG=-RT ln Keq, from KD (Chrysamine G) or Ki (aniline derivative)
T1 sequence (P05067 681-714): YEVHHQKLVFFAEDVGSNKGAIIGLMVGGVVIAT

[4] = Total [14C] Chrysamine G binding to AD brain homogenates; set-up: species or system human
[5] = Total [14C] Chrysamine G binding to control brain homogenates; set-up: species or system human
[6] = Correlation of [14C]CG binding with neuritic plaque (NP) and neurofibrillary tangle (NFT) counts; set-up: species or system human
Description: FIG. 8B is a graph illustrating the correlation between the amount of [^14 C] […] The filled symbols and heavy lines indicate brains without amyloid angiopathy, the open symbols and dashed lines indicate brains with amyloid angiopathy. The y-axis represents total, absolute [^14 C] […] Approximately 75 μg protein and 150 nM [^14 C] Chrysamine G were used.

[7] = [14C] Chrysamine G binding to Down's syndrome brain homogenates; set-up: species or system human; details: two patients, FIG. 9C
Source text: FIGS. 9A, 9B and 9C. […] The data points represent the ratio of [^14 C] […] Horizontal bars represent the mean and error bars represent the standard error for control (circles), and AD brain (diamonds in 9A and 9B). […] Asterisks indicate significant differences compared to control (*p<0.05; **p<0.001). The diamonds in 9C represent a brain from a Down's syndrome patient not yet symptomatic with AD. The triangles in 9C represent a Down's syndrome patient who had developed AD as do the vast majority of Down's syndrome patients by their 40's.

[8] = Tissue levels after i.v. injection of [14C] Chrysamine G in mice (blood-brain barrier); type: in vivo, Swiss-Webster mice; details: 15 to 35 min after i.v. injection
[9] = Metabolism of [14C] Chrysamine G in mouse brain and liver
[10] = Scatchard analysis of [14C]CG binding to AD brain homogenates
[11] = Scatchard analysis of [14C]CG binding to control brain homogenates
Aβ(10-43) [12] = target: T1, Aβ(10-43); assay: Scatchard analysis of [14C] Chrysamine G binding to synthetic Aβ(10-43); details: read-out: dissociation constant; approximately; whether by Scatchard analysis, kinetic methods, or inhibition of binding
PC-12 cells = assay: Protection from Aβ(25-35)-induced toxicity in PC-12 cells (MTT reduction); details: for protective effects in cells incubated with 1 μM Aβ(25-35): Chrysamine G at 0.1 and 1 μM, FIG. 14; for protective effect against Aβ(25-35)-induced decrease in MTT reduction: in words, FIGS. 12 and 13
[13] = in words; Tubis et al.; cited from earlier work
[14] = guinea pigs; Tubis et al.; cited from earlier work
Aβ [15] = details: cited from earlier work
amylin = details: in words; cited from earlier work
Aβ [16] = details: in words; cited from earlier work
[17] = Octanol/water partitioning; details: 1-octanol / phosphate buffered saline pH 7.4

Structure (SMILES): O=C(O)c1cc(C=Cc2ccc(C=Cc3ccc(O)c(C(=O)O)c3)cc2)ccc1O [1,4-bis(3-carboxy-4-hydroxyphenylethenyl)-benzene]
- staining relative to Chrysamine G, Congo red, or Thioflavin S ([1]; human AD brain): much more intense than that observed with Chrysamine G, Congo red, or Thioflavin S
- staining of human AD brain [1]: Numerous amyloid plaques and neuropil threads can be readily identified as well as a neurofibrillary tangle; also recorded: Visible are a large number of neuritic plaques, a neurofibrillary tangle and frequent neuropil threads
- staining of plaque in transgenic mouse brain [2]: intensely stained plaque

Structure (SMILES): O=C(O)c1cc(N=Nc2ccc(-c3ccc(N=Nc4ccc(O)c(C(=O)O)c4)cc3S(=O)(=O)O)c(S(=O)(=O)O)c2)ccc1O [2,2'-(SO3)2 CG]
- binding activity to Aβ (Aβ(10-43) [3]): inactivity

Structure (SMILES): O=C(O)c1cc(N=Nc2ccc(-c3ccc(N=Nc4ccc(O)c(C(=O)O)c4)c(C(=O)O)c3)cc2C(=O)O)ccc1O [3,3'-(COOH)2 CG]
- loss of activity from Chrysamine G (fold) (Aβ(10-43) [3]; vs Chrysamine G): 7 fold

Structure (SMILES): O=C(O)c1cc(N=Nc2ccc(-c3ccc(N=Nc4ccc(O)c(C(=O)O)c4)c(Br)c3)cc2Br)ccc1O [3,3'-Br2 CG]
- Ki relative to Chrysamine G (Aβ(10-43) [3]): about half that of Chrysamine G

Structure (SMILES): O=C(O)c1cc(N=Nc2ccc(-c3ccc(N=Nc4ccc(O)c(C(=O)O)c4)c(Cl)c3)cc2Cl)ccc1O [3,3'-Cl2 CG]
- Ki relative to Chrysamine G (Aβ(10-43) [3]): about half that of Chrysamine G

Structure (SMILES): O=C(O)c1cc(N=Nc2ccc(-c3ccc(N=Nc4ccc(O)c(C(=O)O)c4)c(I)c3)cc2I)ccc1O [3,3'-I2 CG]
- Ki relative to Chrysamine G (Aβ(10-43) [3]): about half that of Chrysamine G

Structure (SMILES): O=C(O)c1cc(N=Nc2ccc(-c3ccc(N=Nc4ccc(O)c(C(=O)O)c4)c(I)c3)cc2)ccc1O [3-ICG]
- potency/affinity relative to reference compound (Aβ(10-43) [3]): slightly more potent than Chrysamine G

Structure (SMILES): O=C(O)c1cc(F)cc(N=Nc2ccc(-c3ccc(N=Nc4cc(F)cc(C(=O)O)c4O)cc3)cc2)c1O [(5-FSA)CG]
- potency/affinity relative to reference compound (Aβ(10-43) [3]): one-third as potent

Structure (SMILES): O=C(O)c1c(O)ccc(N=Nc2ccc(-c3ccc(N=Nc4ccc(O)c(C(=O)O)c4O)cc3)cc2)c1O [(6-OHSA)CG]
- potency/affinity relative to reference compound (Aβ(10-43) [3]): highest affinity compound in this series

Structure (SMILES): O=C(O)c1cc(N=Nc2ccc(-c3ccc(N=Nc4ccc(O)c(C(=O)O)c4)cc3)cc2)ccc1O [Chrysamine G, 4,4'-bis(3-carboxy-4-hydroxyphenylazo)-biphenyl]
- saturable (specific) binding, share of total binding ([4]; AD brain homogenates): 60-80%
- total binding ([4]; Cerebellum, AD (n = 11)): 73 ± 9 fmol/μg protein
- total binding ([4]; Frontal Pole, AD (n = 10), p < 0.006): 124 ± 16 fmol/μg protein
- total binding ([4]; Head of Caudate, AD (n = 7), p = 0.14): 123 ± 22 fmol/μg protein
- total binding ([4]; Inferior Parietal, AD (n = 11), p < 0.03): 137 ± 19 fmol/μg protein
- total binding ([4]; Occipital, AD (n = 11), p = 0.1): 95 ± 12 fmol/μg protein
- total binding ([4]; Superior Temporal, AD (n = 11), p < 0.02): 121 ± 14 fmol/μg protein
- total binding ([4]; Superior/Middle Frontal, AD (n = 11), p < 0.005): 130 ± 21 fmol/μg protein
- saturable and total binding vs control ([4]; in words): greater in AD brain than in control
- total binding ([5]; Cerebellum, Control (n = 8)): 75 ± 13 fmol/μg protein
- total binding ([5]; Frontal Pole, Control (n = 6)): 58 ± 8 fmol/μg protein
- total binding ([5]; Head of Caudate, Control (n = 4)): 73 ± 11 fmol/μg protein
- total binding ([5]; Inferior Parietal, Control (n = 8)): 76 ± 13 fmol/μg protein
- total binding ([5]; Occipital, Control (n = 8)): 64 ± 16 fmol/μg protein
- total binding ([5]; Superior Temporal, Control (n = 8)): 66 ± 17 fmol/μg protein
- total binding ([5]; Superior/Middle Frontal, Control (n = 8)): 54 ± 10 fmol/μg protein
- correlation of binding with NPs (r) ([6]; AD brains alone, p=0.007): 0.59
- correlation of binding with NFTs (r) ([6]; AD brains alone, p=0.026): 0.50
- correlation of binding with NP counts (r) ([6]; brains with cerebrovascular amyloid deposits, p=0.15): 0.49
- correlation of binding with NP counts (r) ([6]; brains without amyloid angiopathy, p=0.01): 0.79
- correlation of binding with NFTs (r) ([6]; controls included, p=0.001): 0.60
- correlation of binding with NPs (r) ([6]; controls included, p=0.001): 0.69
- binding in Down's syndrome brain vs control [7]: above the control range
- radioactivity in brain over time [8]: stayed nearly constant
- energy of binding (Aβ(10-43) [3]): roughly 38 KJ/mole
- radioactivity that is unchanged Chrysamine G ([9]; 60 min, in words): essentially all
- remaining at 1 h ([9]; mouse, iv, 0.05 uCi/g): > 95%
- Bmax (Table 1) ([10]; AD, n = 5): 0.784 ± .061 pmol/μg prot
- Bmax in AD brain higher than control ([10]; not significant (p=0.09)): 36%
- KD in AD brain lower than control ([10]; not significant (p=0.29)): 16%
- Bmax ([10]; typical AD brain sample, 48 NP/×200, FIG. 4B): 790 fmol/μg protein
- Bmax (Table 1) ([11]; Control, n = 6): 0.576 ± .092 pmol/μg prot
- Bmax ([11]; typical control brain sample, FIG. 4B): 614 fmol/μg protein
- Kd (Aβ(10-43) [12]): 250 to 400 nM
- concentration range showing protective effects (PC-12 cells; Aβ(25-35)): 0.1 to 1.0 µM
- protective effects in cells incubated with 1 μM Aβ(25-35) (PC-12 cells): protective effects at 0.1 and 1 μM
- protective effect against Aβ(25-35)-induced decrease in MTT reduction (PC-12 cells): dose-dependent, protective effect; also recorded: protective effect which is dependent on both the concentration of Aβ(25-35) (FIG. 12) as well as the concentration of Chrysamine G; also recorded: prevents Aβ-induced cytotoxicity
- effect on MTT reduction in the absence of Aβ(25-35) (PC-12 cells; vs control, FIG. 13): no significant difference

Structure (SMILES): Nc1c(/N=N/c2ccc(-c3ccc(/N=N/c4cc(S(=O)(=O)O)c5ccccc5c4N)cc3)cc2)cc(S(=O)(=O)O)c2ccccc12 [Congo red]
- crossing of the blood-brain barrier [13]: does not cross the blood-brain barrier well
- brain/kidney ratio [14]: approximately 0.07
- effect on Aβ-induced neurotoxicity and cell degeneration (Aβ [15]; in vitro, in words): inhibits fibrillar Aβ neurotoxicity; also recorded: inhibits Aβ-induced neurotoxicity and cell degeneration in vitro
- concentration for complete protection from Aβ-induced toxicity (Aβ [15]; literature): ≤ 20 µM
- concentration over which Aβ-induced toxicity is protected against (Aβ [15]; literature): over 2 μM
- effect on amylin toxicity to pancreatic islet cells (amylin): inhibit pancreatic islet cell toxicity of diabetes-associated amylin; also recorded: protect pancreatic islet cells from the toxicity caused by amylin
- effect on aggregation of Aβ (Aβ [16]): does inhibit aggregation of Aβ
- octanol/water partition coefficient [17]: 0.665±0.037

Structure (SMILES): O=C(O)c1cc(N=Nc2ccccc2)ccc1O [aniline derivative]
- binding activity to Aβ (Aβ(10-43) [3]): decrease in affinity
- energy of binding (Aβ(10-43) [3]): 23 kJ/mol

Structure (SMILES): Oc1ccc(N=Nc2ccc(-c3ccc(N=Nc4ccc(O)cc4)cc3)cc2)cc1 [phenol derivative]
- binding activity to Aβ (Aβ(10-43) [3]): completely destroyed binding affinity; also recorded: does not bind to synthetic Aβ
- protective effects in cells incubated with 1 μM Aβ(25-35) (PC-12 cells): no protective effects, and perhaps enhanced the toxicity of Aβ
- protective effect against Aβ(25-35)-induced decrease in MTT reduction (PC-12 cells): does not prevent Aβ-induced cytotoxicity

Structure (SMILES): O=C(O)c1ccccc1O [salicylic acid]
- binding activity to Aβ (Aβ(10-43) [3]): total lack of binding activity; also recorded: inactivity
